This note sets out measurements from patent US20070248967A1, “Reporter Assay Using Secrectory Luminescent Enzymes” (NATIONAL INSTITUTE OF ADVANCED INDUSTRIAL SCIENCE, priority 2005, published 2007).

The test system of one data set is CUP1 promoter. Briefly: CuSO4 induction experiment, reporter assay using mCLuc or β-galactosidase. It is filed as cell-based, Saccharomyces cerevisiae. Particulars: 0.025 mM CuSO4-containing medium, pmCLuRA-CUP1 (8 hours) / pGALuRA-CUP1 (16 hours); FIGS. 13A, 13B. As to the method: It has been known that the expression of the CUP1 gene (systematic gene name: YHR053C) of Saccharomyces cerevisiae is induced in the presence of copper ions (Gene, 48, 13-22 (1986)). That is, a CUP1 promoter is a copper-ion-inducible promoter. Thus, with the use of pmCLuRA-CUP1, it was examined whether or not such induction would be observed in the case of mCLuc. In addition, a similar experiment was carried out using β-galactosidase. The results of both experiments were compared and examined.
Three clones of a transformant comprising pmCLuRA-CUP1 and those of a transformant comprising pGALuRA-CUP1 described above were separately introduced into a synthetic liquid medium (SD+KHLadeW 200 mM KPi). Each resultant was shake-cultured overnight at 30° C. until the stationary phase.
Subsequently, 5 μl of the culture solution containing a transformant comprising pmCLuRA-CUP1 was introduced into each well of a 96-deep well plate, with 1 ml of a 0.025 mM CuSO4-containing synthetic liquid medium (SD+KHLadeW 200 mM KPi) or a CuSO4-free synthetic liquid medium (SD+KHLadeW 200 mM KPi) having been added to such well. This was followed by shake culture at 30° C. 8 hours after the initiation of culture, a portion of the culture solution was recovered, followed by measurement of absorbance at 600 nm (OD600) and relative light units (RLU) from a luminometer in accordance with the method in Example 1. […]

The subject of data set [1] is CLuc. Briefly: Influences of various chemical substances on CLuc activity measurement. The conditions noted are these: highly concentrated chemical substance added to culture supernatant; FIG. 6. The class given is biochemical, Cypridina noctiluca.
Source text: For the CLuc activity measurement, an LB960 luminometer (Berthold) was used.
The measurement values were divided by absorbance of the culture solution at 600 nm such that CLuc activity subjected to a correction of the number of yeast cell bodies was obtained.
Influences of chemical substances on CLuc activity measurement were examined, as such substances coexist with yeast culture supernatants upon CLuc activity measurement following the secretory expression of CLuc in yeasts.
Chemical substances (2 μl) that had been adjusted to have different concentrations were separately added to 20 μl of the prepared culture supernatant, followed by CLuc activity measurement.
The relative residual activity of each sample is represented by the mean value and the standard deviation on the condition that the CLuc activity of a sample to which a chemical substance was not added is determined to be 100%.
A further data set concerns GAL1 promoter. Briefly: Galactose induction experiment, reporter assay using mCLuc or β-galactosidase. It is filed as cell-based, Saccharomyces cerevisiae. Particulars: 2% galactose-containing medium without glucose, 32 hours, pmCLuRA-GAL1 / pGALuRA-GAL1; FIGS. 14A, 14B. As to the method: It has been known that the expression of GAL1 gene (systematic gene name: YBR020W) of Saccharomyces cerevisiae is induced in the absence of glucose and the presence of galactose (West, R. W. J. et al., Mol. Cell. Biol., 4: 2467-2478 (1984)). That is, a GAL1 promoter is a galactose-inducible promoter. Thus, with the use of pmCLuRA-GAL1, it was examined whether or not such induction would be observed in the case of mCLuc. In addition, a similar experiment was carried out using β-galactosidase. The results of both experiments were compared and examined.
Three clones of a transformant comprising pmCLuRA-GAL1 and those of a transformant comprising pGALuRA-GAL1 described above were separately introduced into a synthetic liquid medium (SD+KHLadeW 200 mM KPi). […]
Subsequently, 20 μl of the culture solution containing a transformant comprising pmCLuRA-GAL1 was introduced into each well of a 96-deep well plate, with 1 ml of a 2% galactose-containing synthetic liquid medium (SC+KHLadeW (prepared by removing glucose from SD+KHLWade in Example 1) 200 mM KPi) or a synthetic liquid medium (SD+KHLadeW 200 mM KPi) having been added to such well. […] 32 hours after the initiation of culture, a portion of the culture solution was recovered, followed by measurement of absorbance at 600 nm (OD600) and relative light units (RLU) from a luminometer in accordance with the method in Example 1. […]

Data set [2] relates to CLuc. Particulars: final concentration in reaction solution, 100 mM Tris-HCl pH 7.4; FIG. 3.
Procedure: In addition, a stock solution of the culture supernatant of the transformant comprising pCLuRA-TDH3 was separately serial-diluted 10-fold, 100-fold, 1000-fold, and 10000-fold with an SD medium containing a 100 mM phosphate buffer solution so that the resulting diluted culture supernatants were used. Specifically, the concentration of the culture supernatant stock solution was determined to be 100% such that 10-fold, 100-fold, 1000-fold, and 10000-fold diluted culture supernatants had supernatant concentrations of 10%, 1%, 0.1%, and 0.01%, respectively.
Then, CLuc activity measurement was carried out as with the case of Example 1.
In FIG. 3, plots indicate results obtained by using culture supernatants that had been serial-diluted with a culture supernatant stock solution (100%) with reaction solutions with different final concentrations of luciferin.
Data set [3] in a line: Stability of CLuc in yeast culture supernatants. The class given is physicochemical. As to the method: The prepared culture supernatants were incubated at 0° C., 25° C., 40° C., and 50° C. for 0, 15, 30, and 60 minutes, respectively, followed by CLuc activity measurement.
In FIG. 4, each plot indicates the mean value and the standard deviation of relative residual activities of each sample subjected to incubation at a given temperature for a given period of time. The vertical axis denotes the relative residual activity based on the CLuc activity (100%) of a sample that had not been incubated.

A short description of data set [4]: Stability of CLuc activity after sampling of culture solutions. The class given is physicochemical. Particulars: culture solution incubated at 25° C. for 30 minutes; FIG. 8. As for the experimental part:
Thus, in order to examine the stability of CLuc activity after sampling of culture solutions, a transformant comprising pCLuRA-TDH3 prepared in Example 1 was cultured as with the case of Example 1. Then, the yeast culture solution was partially collected (sampling), followed by incubation at 25° C. for 0, 10, 20, and 30 minutes. After incubation, the CLuc activity of each culture solution sample was measured as with the case of Example 1.
In FIG. 8, CLuc activity is shown as the relative residual activity based on the CLuc activity of a sample that was measured immediately after sampling (100%).

Regarding `O=S(=O)([O-])[O-].[Cu+2]` [CuSO4], the “transcription induction of the CUP1 promoter” value with CUP1 promoter is reported as “transcription induction”. For the same molecule, in the data set with CLuc [1], the “inhibition of the enzyme activity of CLuc (relative residual activity)” value is recorded as “inhibited”.
As for `O=C[C@H](O)[C@@H](O)[C@@H](O)[C@H](O)CO` [galactose], the “transcription induction of the GAL1 promoter” value in the data set on GAL1 promoter is given as “transcription induction”.
With `CCO` [ethanol], the “inhibition of the enzyme activity of CLuc (relative residual activity)” value in the data set with CLuc [1] is “inhibited”.
In the case of `CC[C@H](C)c1nc2c(CCCNC(=N)N)[nH]c(-c3c[nH]c4ccccc34)cn-2c1=O` [Cypridina luciferin], the “final luciferin concentration at which CLuc activity reaches a saturation point” value with CLuc [2] is ≥ 1 µM.

B1: CLuc: Cypridina noctiluca-secretory luciferase (SEQ ID NO: 2); secreted from yeast as αCLuc with α-factor signal peptide (protein, listed as Cypridina noctiluca)
chain: MKTLILAVALVYCATVHCQDCPYEPDPPNTVPTSCEAKEGECIDSSCGTCTRDILSDGLCENKPGKTCCRMCQYVIECRVEAAGWFRTFYGKRFQFQEPGTYVLGQGTKGGDWKVSITLENLDGTKGAVLTKTRLEVAGDIIDIAQATENPITVNGGADPIIANPYTIGEVTIAVVEMPGFNITVIEFFKLIVIDILGGRSVRIAPDTANKGMISGLCGDLKMMEDTDFTSDPEQLAIQPKINQEFDGCPLYGNPDDVAYCKGLLEPYKDSCRNPINFYYYTISCAFARCMGGDERASHVLLDYRETCAAPETRGTCVLSGHTFYDTFDKARYQFQGPCKEILMAADCFWNTWDVKVSHRNVDSYTEVEKVRIRKQSTVVELIVDGKQILVGGEAVSVPYSSQNTSIYWQDGDILTTAILPEALVVKFNFKQLLVVHIRDPFDGKTCGICGNYNQDFSDDSFDAEGACDLTPNPPGCTEEQKPEAERLCNSLFAGQSDLDQKCNVCHKPDRVERCMYEYCLRGQQGFCDHAWEFKKECYIKHGDTLEVPDECK
modifications: α-factor signal peptide
As to B1, in data set [3] (culture supernatant incubated at 0, 25, 40, 50° C. for 0-60 minutes, FIG. 4), the “stability of CLuc as an enzyme (relative residual activity)” value is reported as “highly stable”. The “stability of CLuc at room temperature” value in data set [3] (culture supernatant, room temperature, 15 minutes after sampling) is reported as “stable”. Also, in data set [4], the “change in CLuc activity after sampling (relative residual activity)” value was “almost no change”.
